These results are taken from patent publication US10287305B2, “Substituted piperidine compound and use thereof” (Takeda Pharmaceutical Company Limited, priority 2016, dated 2019).

The target in this experiment is human orexin type 2 receptor (hOX2R) (Homo sapiens (Human), UniProt O43614). Nature of the experiment: Measurement of orexin type 2 receptor agonist activity (Experimental Example 2-1, FLIPR TETRA, intracellular Ca2+). The note with it: CHO dhfr- cells expressing hOX2R, FLIPR TETRA, Fluo-4AM; for Emax: read-out: Emax (%). Format: cell-based.
Chain of human orexin type 2 receptor (hOX2R) (O43614 whole entry): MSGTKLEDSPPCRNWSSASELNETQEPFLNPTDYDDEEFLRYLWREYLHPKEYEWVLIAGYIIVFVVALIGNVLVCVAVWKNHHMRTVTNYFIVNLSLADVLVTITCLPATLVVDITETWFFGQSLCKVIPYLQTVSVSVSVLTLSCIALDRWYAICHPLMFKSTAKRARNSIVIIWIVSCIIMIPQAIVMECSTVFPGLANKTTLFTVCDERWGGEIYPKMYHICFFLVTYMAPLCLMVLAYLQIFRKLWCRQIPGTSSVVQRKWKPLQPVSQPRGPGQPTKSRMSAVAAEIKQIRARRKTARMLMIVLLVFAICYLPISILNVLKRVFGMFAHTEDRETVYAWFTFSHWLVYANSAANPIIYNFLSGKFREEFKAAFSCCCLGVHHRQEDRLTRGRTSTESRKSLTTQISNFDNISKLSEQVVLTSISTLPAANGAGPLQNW

The term EC50 denotes the concentration giving half of the maximal effect. A higher EC50 goes with lower potency in that assay. For orientation: Emax means the greatest response seen or fitted, relative to the assay's reference.

With `CS(=O)(=O)N[C@H]1CCCN(C(=O)C2(C#N)CC2)[C@H]1CO[C@H]1CC[C@@H](c2ccccc2)CC1` [Example 187, N-((2R,3S)-1-((1-cyanocyclopropyl)carbonyl)-2-(((cis-4-phenylcyclohexyl)oxy)methyl)piperidin-3-yl)methanesulfonamide], the EC50 amounted to 370 nM and the maximum response (Emax) worked out at 93%. Regarding `C[C@H](O)C(=O)N1CCC[C@H](NS(C)(=O)=O)[C@@H]1CO[C@H]1CC[C@@H](c2ccccc2)CC1` [Example 188, N-((2R,3S)-1-((2S)-2-hydroxypropanoyl)-2-(((cis-4-phenylcyclohexyl)oxy)methyl)piperidin-3-yl)methanesulfonamide], the response was half-maximal at 23 nM (EC50) and the maximal effect (Emax) worked out at 97%. The corresponding values for `[2H]C([2H])([2H])OC(=O)N1CCC[C@H](NS(C)(=O)=O)[C@@H]1CO[C@H]1CC[C@@H](c2ccccc2)CC1` [Example 191, methyl-d3 (2R,3S)-3-((methylsulfonyl)amino)-2-(((cis-4-phenylcyclohexyl)oxy)methyl)piperidine-1-carboxylate] are 2.9 nM and 107%. With `COC(=O)N1CCC[C@H](NS(C)(=O)=O)[C@@H]1CO[C@H]1CC[C@@H](c2cccc(F)c2)CC1` [Example 200, methyl (2R,3S)-2-(((cis-4-(3-fluorophenyl)cyclohexyl)oxy)methyl)-3-((methylsulfonyl)amino)piperidine-1-carboxylate], the Emax came to 95%. Take `CS(=O)(=O)N[C@H]1CCCN(C(=O)C2CC2)[C@H]1CO[C@H]1CC[C@@H](c2c(F)cccc2F)CC1` [Example 213, N-((2R,3S)-1-(cyclopropylcarbonyl)-2-(((cis-4-(2,6-difluorophenyl)cyclohexyl)oxy)methyl)piperidin-3-yl)methanesulfonamide]: a half-maximal response (EC50) required 0.44 nM and the Emax amounted to 102%. In the same order, the values of `CS(=O)(=O)N[C@H]1CCCN(C(=O)C2CC2)[C@H]1CO[C@H]1CC[C@@H](c2cc(F)ccc2F)CC1` [Example 214, N-((2R,3S)-1-(cyclopropylcarbonyl)-2-(((cis-4-(2,5-difluorophenyl)cyclohexyl)oxy)methyl)piperidin-3-yl)methanesulfonamide] are 1.5 nM and 105%. Take `COC(=O)N1CCC[C@H](NS(C)(=O)=O)[C@@H]1CO[C@H]1CC[C@@H](c2c(F)cccc2F)CC1` [Example 215, methyl (2R,3S)-2-(((cis-4-(2,6-difluorophenyl)cyclohexyl)oxy)methyl)-3-((methylsulfonyl)amino)piperidine-1-carboxylate]: the EC50 amounted to 2.5 nM and the maximum response (Emax) was determined as 105%.

Consider `CC(=O)N1CCC[C@H](NS(C)(=O)=O)[C@@H]1CO[C@H]1CC[C@@H](c2cc(F)ccc2F)CC1` [Example 217, N-((2R,3S)-1-acetyl-2-(((cis-4-(2,5-difluorophenyl)cyclohexyl)oxy)methyl)piperidin-3-yl)methanesulfonamide], for which the EC50 came to 13 nM and the “Emax (%)” value is listed as 110%. Take `CS(=O)(=O)N[C@H]1CCCN(C(=O)[C@@H]2C[C@@H]2F)[C@H]1COC1CCN(c2ccccc2F)CC1` [Example 221, N-(cis-1-(((1S,2S)-2-fluorocyclopropyl)carbonyl)-2-(((1-(2-fluorophenyl)piperidin-4-yl)oxy)methyl)piperidin-3-yl)methanesulfonamide]: the concentration for a half-maximal effect (EC50) turned out to be 1600 nM and the Emax came out at 96%.

For `CS(=O)(=O)N[C@H]1CCCN(C(=O)[C@H]2C[C@@H]2F)[C@H]1COC1CCN(c2ccccc2F)CC1` [Example 222, N-(cis-1-(((1R,2S)-2-fluorocyclopropyl)carbonyl)-2-(((1-(2-fluorophenyl)piperidin-4-yl)oxy)methyl)piperidin-3-yl)methanesulfonamide], the concentration giving a half-maximal response (EC50) turned out to be 2100 nM and the maximal effect (Emax) was found to be 102%. In the same order, the values of `CS(=O)(=O)N[C@H]1CCCN[C@H]1CO[C@H]1CC[C@@H](c2cc(F)cc(F)c2F)CC1` [Example 239, N-((2R,3S)-2-(((cis-4-(2,3,5-trifluorophenyl)cyclohexyl)oxy)methyl)piperidin-3-yl)methanesulfonamide] are 280 nM and 102%. In the same order, the values of `CC(=O)N1CCC[C@H](NS(C)(=O)=O)[C@@H]1CO[C@H]1CC[C@@H](c2ccccc2F)CC1` [Example 240, N-((2R,3S)-1-acetyl-2-(((cis-4-(2-fluorophenyl)cyclohexyl)oxy)methyl)piperidin-3-yl)methanesulfonamide] are 24 nM and 107%. The corresponding values for `COC(=O)N1CCC[C@H](NS(C)(=O)=O)[C@@H]1CO[C@H]1CC[C@@H](c2cc(F)cc(F)c2)CC1` [Example 241, methyl (2R,3S)-2-(((cis-4-(3,5-difluorophenyl)cyclohexyl)oxy)methyl)-3-((methylsulfonyl)amino)piperidine-1-carboxylate] are 1.2 nM and 97%. In the case of `CS(=O)(=O)N[C@H]1CCCN(C(=O)C2CC2)[C@H]1CO[C@H]1CC[C@@H](c2cc(F)cc(F)c2)CC1` [Example 242, N-((2R,3S)-1-(cyclopropylcarbonyl)-2-(((cis-4-(3,5-difluorophenyl)cyclohexyl)oxy)methyl)piperidin-3-yl)methanesulfonamide], a half-maximal effect (EC50) was put at 0.88 nM and the maximal effect (Emax) stood at 99%. `CC(=O)N1CCC[C@H](NS(C)(=O)=O)[C@@H]1CO[C@H]1CC[C@@H](c2cc(F)cc(F)c2F)CC1` [Example 243, N-((2R,3S)-1-acetyl-2-(((cis-4-(2,3,5-trifluorophenyl)cyclohexyl)oxy)methyl)piperidin-3-yl)methanesulfonamide]: the EC50 came to 17 nM and the Emax was 97%. Turning to `COC(=O)N1CCC[C@H](NS(C)(=O)=O)[C@@H]1CO[C@H]1CC[C@@H](c2cc(F)cc(F)c2F)CC1` [Example 244, methyl (2R,3S)-3-((methylsulfonyl)amino)-2-(((cis-4-(2,3,5-trifluorophenyl)cyclohexyl)oxy)methyl)piperidine-1-carboxylate], the half-maximal effective concentration (EC50) was 2.6 nM and the Emax turned out to be 97%. Turning to `CS(=O)(=O)N[C@H]1CCCN(C(=O)C2CC2)[C@H]1CO[C@H]1CC[C@@H](c2cc(F)cc(F)c2F)CC1` [Example 245, N-((2R,3S)-1-(cyclopropylcarbonyl)-2-(((cis-4-(2,3,5-trifluorophenyl)cyclohexyl)oxy)methyl)piperidin-3-yl)methanesulfonamide], a half-maximal effect (EC50) was put at 2 nM and the Emax stood at 97%.

With `CS(=O)(=O)N[C@H]1CCCN(C(=O)C2CC2)[C@H]1COC1CCN(c2ccccc2F)CC1` [Example 246, N-((2R,3S)-1-(cyclopropylcarbonyl)-2-(((1-(2-fluorophenyl)piperidin-4-yl)oxy)methyl)piperidin-3-yl)methanesulfonamide], the 50% effective concentration (EC50) is 730 nM and the Emax turned out to be 113%.

On to `CS(=O)(=O)N[C@H]1CCCN(C(=O)C2CC2)[C@H]1CO[C@H]1CC[C@@H](c2cccc(F)c2F)CC1` [Example 250, N-((2R,3S)-1-(cyclopropylcarbonyl)-2-(((cis-4-(2,3-difluorophenyl)cyclohexyl)oxy)methyl)piperidin-3-yl)methanesulfonamide], for which the EC50 was found to be 1.7 nM and the Emax stood at 105%. On to `COC(=O)N1CCC[C@H](NS(C)(=O)=O)[C@@H]1CO[C@H]1CC[C@@H](c2c(F)ccc(F)c2F)CC1` [Example 257, methyl (2R,3S)-3-((methylsulfonyl)amino)-2-(((cis-4-(2,3,6-trifluorophenyl)cyclohexyl)oxy)methyl)piperidine-1-carboxylate], for which the maximal response (Emax) came out at 97%. For `CS(=O)(=O)N[C@H]1CCCN(C(=O)C2CC2)[C@H]1CO[C@H]1CC[C@@H](c2c(F)ccc(F)c2F)CC1` [Example 258, N-((2R,3S)-1-(cyclopropylcarbonyl)-2-(((cis-4-(2,3,6-trifluorophenyl)cyclohexyl)oxy)methyl)piperidin-3-yl)methanesulfonamide], the concentration giving a half-maximal response (EC50) was found to be 0.72 nM and the Emax is 101%.

For `CS(=O)(=O)N[C@H]1CCCN[C@H]1CO[C@H]1CC[C@@H](c2ccccc2F)CC1` [Example 260, N-((2R,3S)-2-(((cis-4-(2-fluorophenyl)cyclohexyl)oxy)methyl)piperidin-3-yl)methanesulfonamide], the half-maximal effective concentration (EC50) was found to be 550 nM and the maximal effect (Emax) was found to be 99%. The corresponding values for `CC(C)OC(=O)N1CCC[C@H](NS(C)(=O)=O)[C@@H]1CO[C@H]1CC[C@@H](c2cccc(F)c2)CC1` [Example 264, isopropyl (2R,3S)-2-(((cis-4-(3-fluorophenyl)cyclohexyl)oxy)methyl)-3-((methylsulfonyl)amino)piperidine-1-carboxylate] are 21 nM and 91%. In the same order, the values of `COC(=O)N1CCC[C@H](NS(C)(=O)=O)[C@@H]1CO[C@H]1CC[C@@H](c2ccccc2F)CC1` [Example 267, methyl (2R,3S)-2-(((cis-4-(2-fluorophenyl)cyclohexyl)oxy)methyl)-3-((methylsulfonyl)amino)piperidine-1-carboxylate] are 3.4 nM and 94%. In the same order, the values of `CS(=O)(=O)N[C@H]1CCCN(C(=O)C2CC2)[C@H]1CO[C@H]1CC[C@@H](c2ccccc2F)CC1` [Example 268, N-((2R,3S)-1-(cyclopropylcarbonyl)-2-(((cis-4-(2-fluorophenyl)cyclohexyl)oxy)methyl)piperidin-3-yl)methanesulfonamide] are 1.5 nM and 103%. As for `CS(=O)(=O)N[C@H]1CCCN(C(=O)OC2CC2)[C@H]1CO[C@H]1CC[C@@H](c2cccc(F)c2)CC1` [Example 272, cyclopropyl (2R,3S)-2-(((cis-4-(3-fluorophenyl)cyclohexyl)oxy)methyl)-3-((methylsulfonyl)amino)piperidine-1-carboxylate], the EC50 was 28 nM and the maximum response (Emax) came to 96%.
